Laboratory results taken from US20070116645A1, “Methods and compositions for inhibiting cholesterol uptake” (priority 2004, published 2007).
Entries after “also recorded” stand apart in the source; their conditions may differ.

Tests used:
CAV1-ANX2b heterocomplex = experiment: Immunoprecipitation and immunoblot for the CAV1-ANX2b heterocomplex in morpholino-injected embryos; assay type: in vivo, zebrafish; settings: for CAV1-ANX2b heterocomplex present / ANX2b protein detected / CAV1 protein detected: 48 hpf embryos, MO injected at 1-8 cell stage; for ANX2b protein detected / CAV1 protein detected: FIG. 3A
Procedure: (§1) All morpholino oligonucleotides were commercially obtained (GeneTools LLC, Philomath, Oreg.). Sequences used were: cav1, 5′-[…]-3′ (SEQ ID NO: 10); anx2b, 5′-[…]-3′ (SEQ ID NO: 11); anx2b (4 base mismatch), 5′-GCCAATT TCGTTAGTAGTTGAAGAG-3 (SEQ ID NO: 12)′; anx2a, 5′-[…]-3′ (SEQ ID NO: 13). MOs were dissolved in Danieau buffer (3) at a concentration of (1-3 μg/μl) and pressure injected into the yolk of early stage larvae (1-8 cell stage) as described (3).
The embryos were lysed in 1 ml of buffer (150 mM NaCl, 1.0% NP-40, 0.5% deoxycholate, 0.1% SDS, 50 mM Tris, pH 8.0) and protein amounts determined by Lowry. Equal amounts of lysate (50 ug) were mixed together in the lysis buffer for 1 hour at 37 °C. At the end of the incubation protein A-sepharose beads (blocked with lysis buffer and 30 mg/ml BSA) were used to pre-clear the samples. Pre-cleared samples were than incubated for 18 hours at 4° C. with the appropriate antibody (2 ug/sample) before adding blocked, protein A-sepharose beads and incubating an additional 2 hours at 4° C. The beads were collected by centrifugation, washed five times in high salt RIPA buffer (500 mM NaCl). The samples were than analyzed by SDS-PAGE and immunoblot.

zebrafish embryos [1] = experiment: Developmental phenotype of morpholino-injected embryos (morphology, myoD in situ hybridization); assay type: in vivo
Procedure: as §1
Methods for breeding and raising zebrafish were followed as described (21). Embryos were obtained from natural matings of wild-type (Oregon, AB) fish and staged according to criteria previously outlined (22) and by hours post-fertilization (hpf). Digoxigenin-labeled RNA probes synthesized for each gene were hybridized to embryos or larvae at various developmental stages. In situ hybridization for anx2b and cav1 expression was carried out as previously described (22).

zebrafish embryos [2] = experiment: Uptake of 14C-labeled glucose in embryos; assay type: in vivo; settings: 5 dpf embryos, data not shown
Procedure: Embryos (uninjected or anx2b MO injected) at 5 dpf were placed at ten per tube in 0.5 ml embryo medium (21) containing methyl-D-glucose, 3-O-[glucose-^14C(U)] (American Radiolabeled Chemicals, Inc.) at a concentration of 12.5 μM and incubated at room temperature for 2 hours. Embryos were then chased with 0.5 ml embryo medium with 125 μM unlabeled glucose and incubated 30 minutes, then rinsed three times with chase solution, transferred to fresh tubes, vigorously homogenized with a pestle, and transferred into scintillation fluid for liquid scintillation counting. Three separate trials with 2 or 3 tubes each of uninjected and injected embryos were performed.

zebrafish embryos [3] = experiment: Embryo lipid composition by SPE and GC-MS (cholesterol, cholesteryl ester, triglycerides); assay type: in vivo; settings: 72 hpf embryos, FIG. 5C
Procedure: Approximately 80 embryos at 72 hpf were placed in 0.7 ml of MBST/OG (25 mM MES, pH 6.5, 0.15 M NaCl, 1% (v/v) Triton X-100, 60 mM octylglucoside, 0.1% (w/v) SDS) and homogenized with a Tissue-Tearor™ homogenizer (Biospec Products, Inc). The sample was then sonicated (50 watts) for ten seconds, three times on ice, centrifuged at 1000×g for 5 minutes and the supernatant collected. Neutral lipids were isolated by Solid Phase Extraction (SPE) on an Oasis HLB 5 cc/200 mg LP Glass Cartridges (Waters, Milford Mass.). The columns were pre-conditioned with 3 ml of methyl tetr-butyl ether, then 3 ml methanol, and finally 3 ml of water. The sample (0.5 ml) was mixed with acetic acid (1 ml) and 5α-androstane-3α-17β-diol (recovery standard, 40 μl) and immediately applied to the column. The column was washed with 2 ml of 2% acetic acid followed by 2 ml of methanol (2%):acetic acid (2%). Neutral lipids were eluted with 3 ml of methyl tetr-butyl ether:methanol:acetic acid (75:23:2). The eluted material was dried under nitrogen, dissolved in 150 μl of hexane:isopropanol (3:2) and transferred to a gas chromatography vial. The material was dissolved in 20 μl of hexamethyldisilazane: pentafluoropropionic anhydride:acetonitrile (100:2:20) for 20 minutes at room temperature and […] was then injected onto a Chemstation gas chromatograph with a mass selective detector, Model 6890 (Agilent Technologies, Wilmington, Del.) and equipped with a SPE HT5 Aluminum Clad Fused Silica Capillary Column, 12 m, 0.32 mm ID, 0.1 um film (Supelco, Bellefonte, Pa.). The inlet temperature was 220° C., the interface temperature was 340° C. and the oven program was 140° C., hold 3 min, 20° C./min to 380° C., hold 5 min. Method of lipid detection was SIM mode with the following mass numbers: 416 for 5α-androstane-3α-17β-diol, 436 for TMS-cholesterol, 368 for cholesterol esters, 98 for triglycerides. A two step procedure was used to quantify the lipids. […]

zebrafish larvae = experiment: In vivo assay for cholesterol transport (NBD-cholesterol intestinal fluorescence); settings: 5 dpf larvae, three independent experiments, ANOVA p<0.00001
Procedure: Embryos (uninjected or anx2b MO injected) at 5 dpf were labeled with NBD-cholesterol (1,26) and blind-sorted into three groups based on intestinal fluorescence, each assigned a numerical value: 1=no or weak fluorescence, 2=moderate, 3=strong; total n=41 uninjected, 55 injected.
Zebrafish larvae were labeled (2 h) with NBD-Cholesterol prepared as previously described (1) in embryo medium (21), anesthetized (tricaine, 170 ug/ml) and placed in depression slides. Fluorescent images were captured using a Zeiss Axiocam 2 mounted on a Leica MZFL-III. For statistical analysis intestinal fluorescence was scored on a three point scale (weak, moderate and bright) and analyzed (ANOVA).

Row | Substance | CAV1-ANX2b heterocomplex present (CAV1-ANX2b heterocomplex) | ANX2b protein detected (CAV1-ANX2b heterocomplex) | CAV1 protein detected (CAV1-ANX2b heterocomplex) | Survival to the stage where NBD-cholesterol is ingested (zebrafish embryos [1]; MO-injected larvae) | Developmental abnormalities (zebrafish embryos [1]; zebrafish, in vivo) | Somite morphology (myoD riboprobe) (zebrafish embryos [1]; zebrafish, in vivo) | ANX2b and complex detected (duration of MO effect) (CAV1-ANX2b heterocomplex; 24, 48 and 72 hpf, FIG. 5B lanes 2-4) | ANX2b detected (duration of MO effect) (CAV1-ANX2b heterocomplex; 96 hpf, FIG. 5B lane 5) | Uptake of 14C-labeled glucose versus uninjected embryos (zebrafish embryos [2]) | Level of cholesterol versus uninjected embryos (zebrafish embryos [3]) | Level of cholesteryl ester versus uninjected embryos (zebrafish embryos [3]) | Level of triglycerides versus uninjected embryos (zebrafish embryos [3]) | Intestinal fluorescence after feeding NBD-cholesterol (zebrafish larvae)
1 | anx2a MO: morpholino antisense oligonucleotide against zebrafish anx2a, 5′-CTAAGAACTCAGAGACCAAAGCCAT-3′ (SEQ ID NO: 13) (all phosphorodiamidate morpholino (PMO)) [reference compound] | contained the CAV1-ANX2b heterocomplex exactly like the uninjected embryos |  |  |  |  |  |  |  |  |  |  |  | 
2 | cav1 MO: morpholino antisense oligonucleotide against zebrafish cav1, 5′-TGTCCCGTCCTTGTATCCGCTAGTC-3′ (SEQ ID NO: 10) (all phosphorodiamidate morpholino (PMO)) | only ANX2 protein monomer and no complex | seen only as a monomer | not detected | failed to survive to a stage where NBD-cholesterol is ingested | early developmental abnormalities including defects in axis elongation and somite patterning | abnormal somites |  |  |  |  |  |  | 
3 | anx2b MO containing 4 bases mismatched: control morpholino, anx2b with 4 base mismatch, 5′-GCCAATT TCGTTAGTAGTTGAAGAG-3 (SEQ ID NO: 12) (antisense GCCAATTTCGTTAGTAGTTGAAGAG; all phosphorodiamidate morpholino (PMO); mismatch control morpholino) [reference compound] | contained the CAV1-ANX2b heterocomplex exactly like the uninjected embryos |  |  |  |  |  |  |  |  |  |  |  | 
4 | anx2b MO: morpholino antisense oligonucleotide against zebrafish anx2b, 5′-GCCATTTTCCTTAGTTGTTGTAGAG-3′ (SEQ ID NO: 11) (all phosphorodiamidate morpholino (PMO)) | only CAV protein monomer | did not contain ANX2b protein | only detected as a monomer |  | did not show any obvious developmental abnormalities |  | no ANX2b and thus no complex is detected | again detected | the same | significantly lower | significantly lower | unaffected | a subset of the injected larvae failed to accumulate the fluorescent cholesterol analog in the digestive tract; also recorded: significant reduction in intestinal fluorescence
